Values joined by “and” are separate entries in the source; they are usually repeats but may differ in a detail not shown here. Identical values can stand only once.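 Dose response: 5 concentrations. Exposure: 48 h. Format: 96-well plates. Endpoint: linear interpolation; highest concentration if not reached. GI50 marks 50% less growth. TGI is the concentration that stops growth completely.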

Our source for the GI50 and TGI values is PubChem BioAssay (NCI).

Among the test systems are 786-0 renal; A549 NSCLC; ACHN renal; MALME-3M melanoma; NCI-H522 lung; RXF 393 renal; SF-539 CNS; SK-MEL-2 melanoma; SK-OV-3 ovarian; UACC-62 melanoma.
Common to all, as to assay: NCI tumour cell line growth inhibition, 48 h

Turning to `CN(C)Cc1c[nH]c2c(NCCN)c3c(c(NCCN)c12)C(=O)c1ccccc1C3=O`, the GI50 in the test with 786-0 renal was 0.71 µM; in the test on A549 NSCLC it was 3.39 µM; in the test on ACHN renal it was 2.12 µM; in the test on MALME-3M melanoma, 3.99 µM; in the test on NCI-H522 lung it was 1.13 µM; in the test with RXF 393 renal, 6.32 µM. The GI50 is 2.83 µM in the test on SF-539 CNS, 2.41 µM in the test on SK-MEL-2 melanoma, 8.67 µM with SK-OV-3 ovarian and 1.44 µM in the test with UACC-62 melanoma. Besides, the TGI is 7.8 µM in the test with 786-0 renal; 16.2 µM in the test with A549 NSCLC; 9.04 µM with ACHN renal; 18.7 µM in the test on MALME-3M melanoma; 3.26 µM in the test on NCI-H522 lung; 18.1 µM in the test on RXF 393 renal. Moreover, the TGI was 7.47 µM in the test with SF-539 CNS, 8.27 µM with SK-MEL-2 melanoma, 24.1 µM in the test with SK-OV-3 ovarian and 4.18 µM in the test with UACC-62 melanoma.
Regarding `NC(=O)c1cccc(Nc2nccc(Nc3cccc(F)c3)n2)c1`, the GI50 is 9.15 µM in the test on 786-0 renal; 7.45 µM in the test with A549 NSCLC; 8.83 µM in the test on ACHN renal; 10.3 µM with MALME-3M melanoma; 5.82 µM in the test on NCI-H522 lung; 3.72 µM in the test on RXF 393 renal. The GI50 in the test with SF-539 CNS is 11.3 µM; in the test with SK-MEL-2 melanoma, 7.37 µM; with SK-OV-3 ovarian, 5.85 µM; with UACC-62 melanoma it was 5.66 µM. Besides, the TGI with 786-0 renal was above 25 µM; in the test on A549 NSCLC it was above 25 µM; with ACHN renal it was above 25 µM; in the test with MALME-3M melanoma, above 25 µM; in the test on NCI-H522 lung, above 23.8 µM; in the test with RXF 393 renal, 14.6 µM. Further, the TGI is above 25 µM in the test on SF-539 CNS, 24.4 µM in the test on SK-MEL-2 melanoma, 17.2 µM with SK-OV-3 ovarian and 24.6 µM in the test on UACC-62 melanoma.
For `C=C1CC2(OC1=O)C(=O)N(CCCN1C(=O)C3(CC(=C)C(=O)O3)c3ccccc31)c1ccccc12` (stereo unspecified), the GI50 in the test with 786-0 renal is 1.68 µM; with A549 NSCLC it was 10.4 µM; in the test on ACHN renal, 1.15 µM; with MALME-3M melanoma, 1.7 µM; with NCI-H522 lung it was 0.444 µM; in the test with RXF 393 renal it was 1.32 µM. Also, the GI50 with SF-539 CNS was 1.76 µM; in the test with SK-MEL-2 melanoma it was 10.4 µM; in the test on SK-OV-3 ovarian, 11.4 µM; in the test with UACC-62 melanoma, 1.54 µM. For the same compound, the TGI with 786-0 renal was 3.9 µM; in the test with A549 NSCLC, 24 µM; with ACHN renal, 2.36 µM; with MALME-3M melanoma it was 3.21 µM; in the test on NCI-H522 lung it was 1.87 µM; with RXF 393 renal, 2.83 µM. Also, the TGI in the test on SF-539 CNS amounted to 3.43 µM; with SK-MEL-2 melanoma it was 32.3 µM; with SK-OV-3 ovarian it was 23.7 µM; in the test on UACC-62 melanoma it was 3.11 µM.
Take `CC(=O)OC1COC(n2c(=S)n(-c3ccccc3)c(=O)c3cc(Br)ccc32)C(OC(C)=O)C1OC(C)=O` (stereo unspecified): the TGI is above 100 µM with 786-0 renal; above 100 µM in the test on A549 NSCLC; above 100 µM in the test with ACHN renal; above 100 µM in the test on MALME-3M melanoma; above 100 µM with NCI-H522 lung; 66.6 µM in the test with RXF 393 renal. Besides, the TGI was 77.7 µM in the test on SF-539 CNS, above 100 µM with SK-MEL-2 melanoma, above 100 µM in the test on SK-OV-3 ovarian and above 100 µM with UACC-62 melanoma.
Regarding `CCN(CC)CCNC(=O)c1c(C)[nH]c(/C=C2\C(=O)Nc3ccc(F)cc32)c1C`, the GI50 was 4.13 µM and 3.07 µM and 2.3 µM in the test with 786-0 renal; 5.52 µM and 2.97 µM and 3.85 µM in the test with A549 NSCLC; 1.77 µM and 1.53 µM and 1.32 µM in the test on ACHN renal; 1.87 µM and 2.18 µM and 1.16 µM in the test on MALME-3M melanoma; 6.2 µM and 3.52 µM and 2.73 µM in the test on NCI-H522 lung; 1.19 µM and 1.45 µM and 1.38 µM in the test with RXF 393 renal. Also, the GI50 in the test with SF-539 CNS was 1.38 µM and 2.36 µM and 1.21 µM; in the test with SK-MEL-2 melanoma, 1.38 µM and 2.1 µM and 4.56 µM; with SK-OV-3 ovarian it was 2.44 µM and 2.26 µM and 3.51 µM; in the test with UACC-62 melanoma, > 10 µM and 3.26 µM and 4.12 µM. The TGI was > 10 µM and 6.16 µM and 7.76 µM with 786-0 renal; > 10 µM and 6.44 µM and 17.6 µM in the test with A549 NSCLC; > 10 µM and 6.48 µM and 9.5 µM in the test on ACHN renal; 6.55 µM and 5.1 µM and 2.91 µM in the test on MALME-3M melanoma; > 10 µM and 6.92 µM and 6.1 µM in the test on NCI-H522 lung; 8.47 µM and 4.56 µM and 4.37 µM with RXF 393 renal. For the same compound, the TGI in the test on SF-539 CNS was 6.7 µM and 5.41 µM and 2.72 µM; with SK-MEL-2 melanoma, 9.46 µM and 4.82 µM and 13.2 µM; with SK-OV-3 ovarian, > 10 µM and 5.43 µM and 19.6 µM; in the test on UACC-62 melanoma, > 10 µM and 6.98 µM and 10.9 µM.
For the compound `COc1ccccc1-c1cc(=O)c2ccc(C)nc2[nH]1`, the GI50 with 786-0 renal was above 100 µM. In addition, the TGI with 786-0 renal, in the test with A549 NSCLC, in the test on ACHN renal, in the test on MALME-3M melanoma, in the test on NCI-H522 lung and in the test with RXF 393 renal was above 100 µM in each case. Besides, the TGI in the test on SF-539 CNS, in the test on SK-MEL-2 melanoma, in the test on SK-OV-3 ovarian and with UACC-62 melanoma was above 100 µM throughout.
Consider `O=S(=O)(CCOCc1ccc(-c2ccc3ncnc(Nc4ccc(OCc5cccc(F)c5)c(Cl)c4)c3c2)o1)c1ccccc1`, for which the GI50 is above 25 µM in the test with 786-0 renal; above 25 µM in the test with A549 NSCLC; 1.86 µM in the test with ACHN renal; above 25 µM with MALME-3M melanoma; above 25 µM in the test with NCI-H522 lung; above 25 µM in the test with RXF 393 renal. The GI50 in the test on SF-539 CNS was above 25 µM; in the test with SK-MEL-2 melanoma it was above 25 µM; in the test with SK-OV-3 ovarian, 0.143 µM; with UACC-62 melanoma it was above 25 µM. For the same compound, the TGI in the test with 786-0 renal, with A549 NSCLC, in the test with ACHN renal, in the test on MALME-3M melanoma, with NCI-H522 lung and in the test on RXF 393 renal was above 25 µM in each case. For the same compound, the TGI with SF-539 CNS, with SK-MEL-2 melanoma, with SK-OV-3 ovarian and with UACC-62 melanoma was above 25 µM in each case.
As to `CCCCCCCCCCCC[n+]1ccccc1` (tested in a mixture with another compound), the GI50 was 1.95 µM with 786-0 renal; 1.68 µM in the test with A549 NSCLC; 2.25 µM in the test with ACHN renal; 0.633 µM with MALME-3M melanoma; 0.855 µM in the test with NCI-H522 lung; 0.682 µM in the test with RXF 393 renal. Besides, the GI50 in the test with SF-539 CNS was 1.43 µM; in the test on SK-MEL-2 melanoma, 1.76 µM; in the test with SK-OV-3 ovarian, 1.16 µM; in the test with UACC-62 melanoma, 1.09 µM. Also, the TGI with 786-0 renal was 5.92 µM; with A549 NSCLC it was 4.43 µM; with ACHN renal it was 14.1 µM; in the test on MALME-3M melanoma, 2.77 µM; in the test with NCI-H522 lung, 5.42 µM; in the test with RXF 393 renal, 4.44 µM. Also, the TGI with SF-539 CNS came out at 3.44 µM; in the test with SK-MEL-2 melanoma, 5.52 µM; with SK-OV-3 ovarian it was 3.74 µM; in the test on UACC-62 melanoma it was 2.54 µM.
